According to patent US8071793B2, “Macrolide compound” (National University Corporation Hokkaido University, priority 2006, dated 2011):
≈ marks a conversion by molar mass, not a printed value.

Tests used:
[1] = test system: human Burkitt's lymphoma cell line (Raji, ATCC No. CRL-86); assay: Proliferation inhibition of human Burkitt's lymphoma cell line Raji (Cell Counting Kit-8); type: cell-based; settings: Raji cells, 72 hours culture, Cell Counting Kit-8, absorbance 450 nm; for IC50: Homo sapiens, read-out: IC50 (compound concentration with a proliferation-inhibition rate of 50%), Raji
Procedure: (§1) Human BuRkitt's lymphoma cell line (DG-75, ATCC No. CRL-2675) or human Burkitt's lymphoma cell line (Raji, ATCC No. CRL-86) was suspended in an RPMI-1640 medium (SIGMA) (hereinafter called culture solution) containing 10% calf serum (Moregate) and 10% fetal bovine serum (Hyclone) so as to set the cell number at 1×10^5/mL. After 50 μL of the cell suspension was added to a 96-well microplate, 49 μL of the above culture solution was added thereto to set the whole volume at 99 μL. Compounds represented by Formulae (6) to (11) that solved in DMSO, 5-FU (Wako) or doxorubicin (Wako) (all 0.0001 to 10 μg/mL) were each added to one well by 1 μL, and cultured with a CO2 concentration of 5% at 37° C. for 72 hours. After culturing, 10 μL of Wako cell Counting Kit-8 (Wako) was added to each well and subjected to color reaction in a CO2 incubator for 3 hours. Proliferation-inhibition rate was calculated from absorbance values measured with a microplate reader at 450 nm (reference wavelength: 620 nm) using the following expression to determine a compound concentration in a culture solution with a proliferation-inhibition rate of 50% as IC50 value.

[2] = Solubility in solvents (physicochemical description); settings: qualitative, organic solvents and water
[3] = test system: Human BuRkitt's lymphoma cell line (DG-75, ATCC No. CRL-2675); assay: Proliferation inhibition of human Burkitt's lymphoma cell line DG-75 (Cell Counting Kit-8); type: cell-based; settings: DG-75 cells, 72 hours culture, Cell Counting Kit-8, absorbance 450 nm; for IC50: Homo sapiens, read-out: IC50 (compound concentration with a proliferation-inhibition rate of 50%), DG-75
Procedure: as §1

[4] = test system: Meth A fibrosarcoma cells; assay: Anticancer activity in mice with transplanted Meth A fibrosarcoma cells (tumor weight); type: in vivo, Balb/c mouse; settings: for Proliferation-inhihition rate (%): 1/3 of the whole volume at 7th, 9th and 11th days, tumor weight at 21st day, female Balb/c mouse
Procedure: A compound represented by Formula (8) (50 to 500 μg/kg) that solved in ethanol or 5-FU (10 mg/kg) was administered to an 8-week old female Balb/c mouse (Japan SLC) having approx. 1×10^5 of Meth A fibrosarcoma cells (Kitasato Institute) intraperitoneally transplanted therein by ⅓ of the whole volume at 7th, 9th and 11th days intravenously (but 5-FU administered intraperitoneally) to measure tumor weight at 21st day. Using a control mouse to which normal saline solution was administered in lieu of a test compound, anticancer activity on each compound was expressed in number according to a formula of proliferation-inhibition rate (%)=(1−(sample/blank))×100.

Row | Structure (SMILES) | IC50 [1] | Solubility [2] | IC50 [3] | further results
1 | C/C=C/C/C=C/C(C)CC(O)C1CC2OC2/C=C/C(O)C(O)/C=C/CC(C)CC(=O)O1 (stereo not drawn) [Compound 11] | 0.05 µg/mL (≈ 0.115 µM) | soluble in chloroform, acetone, ethyl acetate and ethanol, insoluble in water and hexane | 0.08 µg/mL (≈ 0.184 µM) | 
2 | C/C1=C/C(=O)C(C)(O)/C=C/CC(C)C(CC(C)C(C)O)OC(=O)/C=C(/C)C(C)C(O)/C=C/CC(O)C1 (stereo not drawn) [Compound 9] |  | soluble in chloroform, acetone, ethyl acetate and ethanol, insoluble in water and hexane | 0.9 µg/mL (≈ 1.78 µM) | 
3 | O=c1[nH]cc(F)c(=O)[nH]1 [Compound 5-FU, 5-FU, reference compound] |  |  |  | IC50 (compound concentration with a proliferation-inhibition rate of 50%), Raji [1]: 3.0 µg/mL; IC50 (compound concentration with a proliferation-inhibition rate of 50%), DG-75 [3]: 0.9 µg/mL; Proliferation-inhihition rate (%) ([4]; 10000 μg/kg (10 mg/kg), intraperitoneally): 60.2%
4 | C=C1/C=C(\C)C(C)CC(O)CC(=O)C(O)C(O)C(C)CC(C)OC(=O)/C(C)=C/CCCCC2OC2CC(C)C1 (stereo not drawn) [Compound 7] |  | soluble in alcohol, chloroform, ethyl acetate and acetone, insoluble in hexane and water | 0.4 µg/mL (≈ 0.729 µM) | 
5 | C=C1/C=C(\C)C(C)CC(O)CC(=O)C(O)C(O)C(C)CC(C)OC(=O)C(C)C(O)CCCCC2OC2CC(C)C1 (stereo not drawn) [Compound 6] |  | soluble in alcohol, chloroform, ethyl acetate and acetone, insoluble in hexane and water | 0.02 µg/mL (≈ 0.0353 µM) | 
6 | C=C1CC2C/C=C/C(O)C(C)/C(C)=C\C(=O)OC(CC(C)C(C)O)C(C)C/C=C/C(C)(O)C(O)(C1)O2 (stereo not drawn) [Compound 8] | 0.003 µg/mL (≈ 0.00592 µM) | soluble in chloroform, acetone, ethyl acetate, ethanol and methanol, insoluble in water and hexane | 0.002 µg/mL (≈ 0.00395 µM) | Proliferation-inhihition rate (%) ([4]; 50 μg/kg, intravenously): 5.3%; Proliferation-inhihition rate (%) ([4]; 200 μg/kg, intravenously): 62.2%; Proliferation-inhihition rate (%) ([4]; 500 μg/kg, intravenously): 54.3%; Proliferation-inhibition rate (anticancer activity) compared with 5-FU ([4]; Meth A fibrosarcoma mouse model, Formula (8) administered with a lower concentration than 5-FU): almost the same proliferation-inhibition rate (anticancer activity) as 5-FU
7 | COc1cccc2c1C(=O)c1c(O)c3c(c(O)c1C2=O)C[C@@](O)(C(=O)CO)C[C@@H]3O[C@H]1C[C@H](N)[C@H](O)[C@H](C)O1 [Doxorubicin, doxorubicin, reference compound] | 0.02 µg/mL (≈ 0.0368 µM) |  | 0.04 µg/mL (≈ 0.0736 µM) | 
8 | C=C(C(O)CC)C(C)C(O)C1CCC/C(C)=C/C2OC(CC2C)C2OC(CC/C=C/CCC(C)C(=O)O1)CC2O (stereo not drawn) [Compound 10] | 0.01 µg/mL (≈ 0.0178 µM) | soluble in chloroform, acetone, ethyl acetate and ethanol, insoluble in water and hexane | 0.006 µg/mL (≈ 0.0107 µM) | 
